The structures appear in SMILES notation.

Assay [1] deals with Rattus norvegicus. Description: Increase in extracellular acetylcholine at 1 uM in urethane anesthetized Sprague-Dawley rat nucleus accumbens. The format is functional.
For assay [2], the system named is Rattus norvegicus. Description: Increase in extracellular acetylcholine at 2 uM in urethane anesthetized Sprague-Dawley rat nucleus accumbens. The assay is classed as functional.
For assay [3], the target named is T1, Acetylcholinesterase (Homo sapiens, UniProt P22303). Kind of assay: Inhibition of AChE by microplate assay.
Assay [4] has as its system Rattus norvegicus. Description: Increase in extracellular acetylcholine in urethane anesthetized Sprague-Dawley rat nucleus accumbens. The assay is classed as functional.
For assay [5], the system named is Rattus norvegicus. Kind of assay: Increase in extracellular acetylcholine in urethane anesthetized Sprague-Dawley rat nucleus accumbens at 2 umol relative to basal release. The format is functional.
Assay [6] deals with T1, Acetylcholinesterase. Description: Inhibition of AChE at 1000 uM by microplate assay.

T1 sequence (P22303 whole entry): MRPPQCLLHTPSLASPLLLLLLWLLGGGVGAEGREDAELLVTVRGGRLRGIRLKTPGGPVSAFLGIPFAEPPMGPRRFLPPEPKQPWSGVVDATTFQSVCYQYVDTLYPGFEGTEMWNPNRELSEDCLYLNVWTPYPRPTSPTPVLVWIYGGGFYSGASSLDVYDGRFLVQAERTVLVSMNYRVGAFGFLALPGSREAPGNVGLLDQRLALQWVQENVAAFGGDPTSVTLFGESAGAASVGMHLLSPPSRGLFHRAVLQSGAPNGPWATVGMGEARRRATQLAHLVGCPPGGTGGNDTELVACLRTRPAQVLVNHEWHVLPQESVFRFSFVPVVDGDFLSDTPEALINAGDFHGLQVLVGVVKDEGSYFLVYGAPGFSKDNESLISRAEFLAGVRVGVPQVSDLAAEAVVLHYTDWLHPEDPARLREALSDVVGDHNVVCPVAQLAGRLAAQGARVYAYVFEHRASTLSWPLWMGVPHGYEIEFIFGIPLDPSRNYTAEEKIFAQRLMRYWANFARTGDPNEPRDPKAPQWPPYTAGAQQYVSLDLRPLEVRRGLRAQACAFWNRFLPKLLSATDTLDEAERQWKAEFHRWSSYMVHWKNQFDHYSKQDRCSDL

For the compound `COc1ccc2c3c1O[C@H]1C[C@@H](O)C=C[C@@]31CCN(C)C2` [GALANTAMINE], the results for the Activity in the assay with Rattus norvegicus [1] and with Rattus norvegicus [2] were 1.78 and 1.68, respectively.
`COc1cc2ccc(=O)oc2cc1O` [SCOPOLETIN] registered an IC50 against Acetylcholinesterase [3] of 169 µM. The figures for the Activity in the assay with Rattus norvegicus [4] and in the assay with Rattus norvegicus [5] were 1.74 and 170%, respectively.
In the case of `COc1cc2ccc(=O)oc2cc1O[C@@H]1O[C@H](CO)[C@@H](O)[C@H](O)[C@H]1O` [SCOPOLIN], the figures for the Activity result at Acetylcholinesterase [3], with Rattus norvegicus [4] and with Rattus norvegicus [5] were “Dose-dependent effect”, 3.18 and 300%, respectively. Besides, the inhibition against Acetylcholinesterase [6] worked out at 30.1%.

One may read the IC50 as the concentration at which inhibition is half-maximal. A high value points to weaker potency in that assay. For orientation: inhibition means the percentage by which the read-out fell short of the control. Higher therefore signals a response far below the control.

Source of the values: ChEMBL document CHEMBL1149251, “Acetylcholinesterase inhibitory activity of scopolin and scopoletin discovered by virtual screening of natural products” (J Med Chem, 2004).
